Results on seven molecules are retold here after PubChem BioAssay AID1963848 (Molecular Pharmacology Branch, DTP, NCI, 2024).

The subject of the test is 379773-124-R-J2-PDC spheroid viability. Kind of test: Anticancer human tumor 379773-124-R-J2-PDC patient-derived endometrial carcinoma cell line growth inhibition [POLQ]. The conditions noted are these: spheroids with HUVEC and MSC; for viability, T/C: stronger effect = lower value. The procedure: Multicellular complex tumor spheroid response to Polymerase (POL) inhibitors (novobiocin, ART-558, RP6685) in combination with a variety of drugs and investigational agents in selected tumor cell lines
The POL inhibitors (novobiocin, ART-558, and RP6685) were evaluated both individually and in combination with standard of care and investigational anticancer small molecules within a complex spheroid model of solid tumors. . Complex spheroids include a stromal component modeled by human endothelial cells (HUVEC) and fibroblasts modeled by human mesenchymal stem cells (MSCs). The concentration ranges selected for each drug and investigational agent were based upon clinically achievable concentrations if the clinical Cmax of the agent was known.
Compounds. The drugs and investigational agents: novobiocin (NSC847541), ART-558 (NSC835418), RP-6685 (NSC848927), peposertib (NSC802822), ceralasertib (NSC780249), elimusertib (NSC800525), camonsertib (NSC841442), AZD-1390 (NSC803789), olaparib (NSC753686), talazoparib (NSC767125), rucaparib (NSC756644), sotorasib (NSC818433), MRTX-1133 (NSC836407), SN-38 (NSC673596), topotecan (NSC609699), epotoside (NSC141540), doxorubicin (NSC123127), gemcitabine (NSC613327), 5-fluorouracil (NSC19893), paclitaxel (NSC125973), vemurafenib (NSC761431), MSA-2 (NSC828583), SN-011 (NSC837082), adavosertib (NSC754352), prexasertib (NSC758257), carboplatin (NSC241240) and oxaliplatin (NSC266046), were obtained from the National Cancer Institute (NCI) Developmental Therapeutics Program Chemical Repository (21). The FDA-approved anticancer drug set is available from the Developmental Therapeutics Program at https://dtp.cancer.gov/organization/dscb/obtaining/. […] The stock solutions were prepared in dimethyl sulfoxide (DMSO, Sigma-Aldrich, St. Louis, MO, cat. D2650), except for the platinum compounds which were prepared in saline (Quality Biological, Gaithersburg, MD, cat. 114-055-101), at 800-fold the tested concentration and stored at -70 degrees C prior to their use. All drugs and investigational agents were tested over a range starting from a high concentration at or near the clinical Cmax and decreasing in half-log increments. If the clinical Cmax for an agent had not been determined, the highest concentration tested was 10 microM, except for SN-38, which was tested at a high concentration of 1 microM.
Cell Culture. All cells were maintained in an incubator at 37 degrees C and 5% CO2 with 95% humidity. The PDC lines were cultured according to standard operating procedures established by the NCI PDMR (https://pdmr.cancer.gov). Table 3 of the manuscript, lists the cell lines along with the number of the three cell types plated to form the mct-spheroids and media for tumor cell growth. After thawing, all PDC lines, except 997537-175-T-J1-PDC and 415267-285-R-J2-PDC, were cultured in Matrigel-coated flasks prepared with a working solution of 1X Ham's F-12 nutrient mix, without supplementation (Thermo Fisher Scientific, cat. 11765054), 100 U/mL penicillin-streptomycin (Thermo Fisher Scientific, cat. 15140122), and 2.5% Matrigel (Corning Inc., Corning, NY, cat. 354248) for the first three passages. The two PDC lines 997537-175-T-J1-PDC and 415267-285-R-J2-PDC were cultured on uncoated flasks. The 857933-349-R-J2-PDC line was cultured in 6C/Colon 1B media containing advanced DMEM/F-12 (Thermo Fisher Scientific, cat. 12634028), 10 mM HEPES (Thermo Fisher Scientific, cat. 15630080), 1X GlutaMAX supplement (Thermo Fisher Scientific, cat. 35050061), 0.1 mg/mL primocin (InvivoGen, San Diego, CA, cat. ant-pm-2), 10% defined fetal bovine serum, heat inactivated (HyClone Laboratories Inc., Logan, UT, cat. SH30070.03HI), 50% L-WRN conditioned media (ATCC, cat. CRL-3276), 1.25 mM N-Acetyl-L-cysteine (Sigma-Aldrich, cat. A9165), 10 mM nicotinamide (Sigma-Aldrich, cat. N0636), 1X B-27 supplement (Thermo Fisher Scientific, cat. 17504044), 1X N-2 supplement (Thermo Fisher Scientific, cat. […]

The mark [1] stands for this setting: compound alone, run of 11/06/2023.

Values joined by “and” are separate entries in the source; they are usually repeats but may differ in a detail not shown here. Equal values may be shown once.
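Note: spheroids exposed to drugs for seven days before readout.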
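Throughout, for viability, T/C: percent viability relative to DMSO vehicle control taken as 100%.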

As to `O=C(Nc1ccc(O)c(NS(=O)(=O)c2ccc(F)cc2)c1)c1ccc(-c2ccccc2)cc1` + COC1C(OC(N)=O)C(O)C(Oc2ccc3c(O)c(NC(=O)c4ccc(O)c(CC=C(C)C)c4)c(=O)oc3c2C)OC1(C)C, the IC50 is, setting by setting: (curve of first compound, second compound 0.0316 µM) greater than 10 µM; (curve of first compound, second compound 0.1 µM) greater than 10 µM; (curve of first compound, second compound 0.316 µM) greater than 10 µM; (curve of first compound, second compound 1 µM) greater than 10 µM; (curve of first compound, second compound 3.16 µM) greater than 10 µM; (curve of first compound, second compound 10 µM) greater than 10 µM. The viability, T/C was 88.1% (second compound 0.0316 µM, first compound 0.0316 µM); 79.6% (second compound 0.0316 µM, first compound 0.1 µM); 87.4% (second compound 0.0316 µM, first compound 0.316 µM); 75% (second compound 0.0316 µM, first compound 1 µM); 82.5% (second compound 0.0316 µM, first compound 3.16 µM); 76.2% (second compound 0.0316 µM, first compound 10 µM). The viability, T/C by setting is: (second compound 0.1 µM, first compound 0.0316 µM) 83.5%; (second compound 0.1 µM, first compound 0.1 µM) 77.2%; (second compound 0.1 µM, first compound 0.316 µM) 99.9%; (second compound 0.1 µM, first compound 1 µM) 79.5%; (second compound 0.1 µM, first compound 3.16 µM) 75.8%; (second compound 0.1 µM, first compound 10 µM) 74%. Also, the viability, T/C runs as follows: (second compound 0.316 µM, first compound 0.0316 µM) 82%; (second compound 0.316 µM, first compound 0.1 µM) 92.8%; (second compound 0.316 µM, first compound 0.316 µM) 95.6%; (second compound 0.316 µM, first compound 1 µM) 73.4%; (second compound 0.316 µM, first compound 3.16 µM) 86.4%; (second compound 0.316 µM, first compound 10 µM) 67.1%. For the same molecule, the viability, T/C runs as follows: (second compound 1 µM, first compound 0.0316 µM) 95.1%; (second compound 1 µM, first compound 0.1 µM) 73.5%; (second compound 1 µM, first compound 0.316 µM) 79.8%; (second compound 1 µM, first compound 1 µM) 79%; (second compound 1 µM, first compound 3.16 µM) 83.9%; (second compound 1 µM, first compound 10 µM) 70.1%. For the same molecule, the viability, T/C by setting is: (second compound 3.16 µM, first compound 0.0316 µM) 79.2%; (second compound 3.16 µM, first compound 0.1 µM) 88.2%; (second compound 3.16 µM, first compound 0.316 µM) 77.9%; (second compound 3.16 µM, first compound 1 µM) 80.7%; (second compound 3.16 µM, first compound 3.16 µM) 90.3%; (second compound 3.16 µM, first compound 10 µM) 83.3%. Further, the viability, T/C reads like this: (second compound 10 µM, first compound 0.0316 µM) 84.4%; (second compound 10 µM, first compound 0.1 µM) 78.9%; (second compound 10 µM, first compound 0.316 µM) 80.7%; (second compound 10 µM, first compound 1 µM) 80.4%; (second compound 10 µM, first compound 3.16 µM) 75.3%; (second compound 10 µM, first compound 10 µM) 74.6%.

For the molecule `Cc1cccc(N(C)C(=O)C2C(O)CCN2c2nc(C)cc(C(F)(F)F)c2C#N)c1` (stereo not given), the viability, T/C was 89.8% [middle of 13 runs] (compound 0.0316 µM); 90.7% [middle of 13 runs] (compound 0.1 µM); 88.2% [middle of 13 runs] (compound 0.316 µM); 88.2% [middle of 13 runs] (compound 1 µM); 89% [middle of 13 runs] (compound 3.16 µM); 92.7% [middle of 13 runs] (compound 10 µM). The IC50 was greater than 10 µM (compound alone, run of 10/31/2023) and greater than 10 µM under setting [1].

On to `COc1cccc2c1C(=O)c1c(O)c3c(c(O)c1C2=O)CC(O)(C(=O)CO)CC3OC1CC(N)C(O)C(C)O1` (stereo not given), for which the viability, T/C (compound 0.0316 µM) is 78.1% and 95.3% and 81.8%; the viability, T/C (compound 0.1 µM) was 25% and 40.3% and 29.4%; the viability, T/C (compound 0.316 µM) was 7.16% and 12.4% and 5.32%; the viability, T/C (compound 1 µM) was 7.82% and 10.6% and 5.98%; the viability, T/C (compound 3.16 µM) is 1.99% and 2.49% and 0.93%; the viability, T/C (compound 10 µM) is 0.82% and 0.3% and 0.62%. Also, for the setting “curve of compound”, the IC50 is 0.0581 µM and 0.0807 µM and 0.0636 µM.

`Nc1ccc(C#CCN(C(=O)Cc2ncc(C(F)(F)F)cc2C(F)(F)F)c2ccc(F)cc2)nn1`: the viability, T/C was 91.8% [middle of 13 runs] (compound 0.0316 µM); 92.8% [middle of 13 runs] (compound 0.1 µM); 93.2% [middle of 13 runs] (compound 0.316 µM); 91.9% [middle of 13 runs] (compound 1 µM); 94.9% [middle of 12 runs] (compound 3.16 µM); 91.4% [middle of 13 runs] (compound 10 µM). Also, the IC50 under setting [1] was greater than 10 µM.

On to `Cn1ncnc1[C@H]1c2n[nH]c(=O)c3cc(F)cc(c23)N[C@@H]1c1ccc(F)cc1`, for which the viability, T/C runs as follows: (compound 0.000316 µM) 87.2% and 92.3% and 89.2%; (compound 0.001 µM) 84% and 90% and 91.3%; (compound 0.00316 µM) 95.8% and 99.7% and 71.6%; (compound 0.01 µM) 80.2% and 93.1% and 88.5%; (compound 0.0316 µM) 69.2% and 76.9% and 80.9%; (compound 0.1 µM) 51.7% and 51.5% and 63.7%. Further, the IC50 (curve of compound) is greater than 0.1 µM.

For the molecule `C=CC(=O)N1CCN(c2nc(=O)n(-c3c(C)ccnc3C(C)C)c3nc(-c4c(O)cccc4F)c(F)cc23)C(C)C1` (stereo not given), the viability, T/C is 97.8% and 95.1% and 86.4% (compound 0.0316 µM); 86.7% and 106% and 91.7% (compound 0.1 µM); 70% and 103% and 89.9% (compound 0.316 µM); 86.1% and 93.1% and 87.7% (compound 1 µM); 88.5% and 95.5% and 97.6% (compound 3.16 µM); 78.4% and 95.8% and 85.6% (compound 10 µM). Further, the IC50 (curve of compound) is greater than 10 µM.

As for `CCc1c2c(nc3ccc(O)cc13)-c1cc3c(c(=O)n1C2)COC(=O)[C@]3(O)CC`, the viability, T/C (compound 0.00316 µM) is 45.6% and 49.3% and 46.8%; the viability, T/C (compound 0.01 µM) was 11.9% and 17.2% and 7.71%; the viability, T/C (compound 0.0316 µM) was 6.11% and 11.4% and 5.39%; the viability, T/C (compound 0.1 µM) is 2.46% and 4.85% and 2.38%; the viability, T/C (compound 0.316 µM) is 1.23% and 4.28% and 1.04%; the viability, T/C (compound 1 µM) is 1.89% and 0.95% and 0.4%. Moreover, under “curve of compound”, the IC50 is less than 0.00316 µM.

By IC50 is commonly meant the concentration at which inhibition is half-maximal. What is called viability, T/C is the result in the treated group divided by that in the control group, in per cent.
